Experimental data: patent US20180244699A1, “1-HYDROXY-3H-2,1-BENZOXABOROLE DERIVATIVES AND THEIR USE AS MICROBIOCIDES” (Syngenta Participations AG, priority 2015, published 2018)

Key:
Assay type in all cases: cell-based
[1] = test system: Monographella nivalis (Microdochium nivale); test: Monographella nivalis (Microdochium nivale) / liquid culture (foot rot cereals); details: growth inhibition photometrically 4-5 days after application, compared to untreated control
Experimental: 8. Monographella nivalis (Microdochium nivale)/Liquid Culture (Foot Rot Cereals) Conidia of the fungus from cryogenic storage are directly mixed into nutrient broth (PDB potato dextrose broth). After placing a (DMSO) solution of test compound into a microtiter plate (96-well format), the nutrient broth containing the fungal spores is added. The test plates are incubated at 24° C. and the inhibition of growth is determined photometrically 4-5 days after application.

[2] = test system: Pythium ultimum; test: Pythium ultimum / liquid culture (seedling damping off); details: Globisporangium ultimum, growth inhibition photometrically 2-3 days after application, compared to untreated control
Experimental: 15. Pythium ultimum/Liquid Culture (Seedling Damping Off) Mycelia fragments and oospores of a newly grown liquid culture of the fungus are directly mixed into nutrient broth (PDB potato dextrose broth). After placing a (DMSO) solution of test compound into a microtiter plate (96-well format), the nutrient broth containing the fungal mycelia/spore mixture is added. The test plates are incubated at 24° C. and the inhibition of growth is determined photometrically 2-3 days after application.

[3] = test system: Mycosphaerella graminicola (Septoria tritici); test: Mycosphaerella graminicola (Septoria tritici) / liquid culture (Septoria blotch); details: Zymoseptoria tritici, growth inhibition photometrically 4-5 days after application, compared to untreated control
Experimental: 18. Mycosphaerella graminicola (Septoria tritici)/Liquid Culture (Septoria Blotch) Conidia of the fungus from cryogenic storage are directly mixed into nutrient broth (PDB potato dextrose broth). After placing a (DMSO) solution of test compound into a microtiter plate (96-well format), the nutrient broth containing the fungal spores is added. The test plates are incubated at 24° C. and the inhibition of growth is determined photometrically 4-5 days after application.

[4] = test system: Gaeumannomyces graminis; test: Gaeumannomyces graminis / liquid culture (take-all of cereals); details: growth inhibition photometrically 4-5 days after application, compared to untreated control
Experimental: 6. Gaeumannomyces Graminis/Liquid Culture (Take-all of Cereals) Mycelial fragments of the fungus from cryogenic storage were directly mixed into nutrient broth (PDB potato dextrose broth). After placing a (DMSO) solution of test compound into a microtiter plate (96-well format), the nutrient broth containing the fungal spores is added. The test plates are incubated at 24° C. and the inhibition of growth is determined photometrically 4-5 days after application.

[5] = test system: Glomerella lagenarium (Colletotrichum lagenarium); test: Glomerella lagenarium (Colletotrichum lagenarium) / liquid culture (anthracnose); details: Colletotrichum orbiculare, growth inhibition photometrically 3-4 days after application, compared to untreated control
Experimental: 3. Glomerella lagenarium (Colletotrichum lagenarium)/Liquid Culture (Anthracnose) Conidia of the fungus from cryogenic storage are directly mixed into nutrient broth (PDB potato dextrose broth). After placing a (DMSO) solution of test compound into a microtiter plate (96-well format), the nutrient broth containing the fungal spores is added. The test plates are incubated at 24° C. and the inhibition of growth is measured photometrically 3-4 days after application.

Measured: inhibition of growth at 20 ppm

COc1c(C(=O)OCC(F)(F)F)ccc2c1B(O)OC2 [Compound 10, 2,2,2-trifluoroethyl 1-hydroxy-7-methoxy-3H-2,1-benzoxaborole-6-carboxylate]
≥ 80%: all assays above

COc1c(C(=O)OCC(OC)c2ccccc2)ccc2c1B(O)OC2 (stereo not shown) [Compound 75, (2-methoxy-2-phenyl-ethyl) 1-hydroxy-7-methoxy-3H-2,1-benzoxaborole-6-carboxylate]
≥ 80%: [1] | [2] | [4]

COc1c(C(=O)OCC2CCC=CO2)ccc2c1B(O)OC2 (stereo not shown) [Compound 77, 3,4-dihydro-2H-pyran-2-ylmethyl 1-hydroxy-7-methoxy-3H-2,1-benzoxaborole-6-carboxylate]
≥ 80%: [1] | [2] | [4]

COc1c(C(=O)OCC#Cc2ccc(Cl)cc2)ccc2c1B(O)OC2 [Compound 80, 3-(4-chlorophenyl)prop-2-ynyl 1-hydroxy-7-methoxy-3H-2,1-benzoxaborole-6-carboxylate]
≥ 80%: [1] | [2] | [4]

COc1c(C(=O)OCCOc2ccc(Cl)cc2)ccc2c1B(O)OC2 [Compound 81, 2-(4-chlorophenoxy)ethyl 1-hydroxy-7-methoxy-3H-2,1-benzoxaborole-6-carboxylate]
≥ 80%: [1] | [2] | [4]

COc1c(C(=O)OCCOc2ccccc2C)ccc2c1B(O)OC2 [Compound 82, 2-(2-methylphenoxy)ethyl 1-hydroxy-7-methoxy-3H-2,1-benzoxaborole-6-carboxylate]
≥ 80%: all assays above

COc1c(C(=O)OCc2cccc(C(F)(F)F)c2)ccc2c1B(O)OC2 [Compound 88, [3-(trifluoromethyl)phenyl]methyl 1-hydroxy-7-methoxy-3H-2,1-benzoxaborole-6-carboxylate]
≥ 80%: [1] | [2] | [4]

COC(=O)Nc1ccc(COC(=O)c2ccc3c(c2OC)B(O)OC3)cc1 [Compound 90, [4-(methoxycarbonylamino)phenyl]methyl 1-hydroxy-7-methoxy-3H-2,1-benzoxaborole-6-carboxylate]
≥ 80%: [1] | [2] | [4]

COc1c(C(=O)OCc2c(Cl)cc(O)cc2Cl)ccc2c1B(O)OC2 [Compound 92, (2,6-dichloro-4-hydroxy-phenyl)methyl 1-hydroxy-7-methoxy-3H-2,1-benzoxaborole-6-carboxylate]
≥ 80%: [1] | [2] | [4]

COc1c(C(=O)OCC(C)(C)c2nnc(S)nc2O)ccc2c1B(O)OC2 [Compound 95, [2-(5-hydroxy-3-sulfanyl-1,2,4-triazin-6-yl)-2-methyl-propyl] 1-hydroxy-7-methoxy-3H-2,1-benzoxaborole-6-carboxylate]
≥ 80%: [1] | [2] | [4]

COc1c(C(=O)OCc2nc(C)cs2)ccc2c1B(O)OC2 [Compound 96, (4-methylthiazol-2-yl)methyl 1-hydroxy-7-methoxy-3H-2,1-benzoxaborole-6-carboxylate]
≥ 80%: [1] | [2] | [4]

CCCC1OCC(C)(COC(=O)c2ccc3c(c2OC)B(O)OC3)CO1 (stereo not shown) [Compound 98, (5-methyl-2-propyl-1,3-dioxan-5-yl)methyl 1-hydroxy-7-methoxy-3H-2,1-benzoxaborole-6-carboxylate]
≥ 80%: [1] | [2] | [4]

CCOC(=O)CC(OC(=O)c1ccc2c(c1OC)B(O)OC2)C(F)(F)F (stereo not shown) [Compound 101, [3-ethoxy-3-oxo-1-(trifluoromethyl)propyl] 1-hydroxy-7-methoxy-3H-2,1-benzoxaborole-6-carboxylate]
≥ 80%: [2] | [4]

COc1c(C(=O)OCCn2nc(C)cc2OC(C)=O)ccc2c1B(O)OC2 [Compound 102, 2-(5-acetoxy-3-methyl-pyrazol-1-yl)ethyl 1-hydroxy-7-methoxy-3H-2,1-benzoxaborole-6-carboxylate]
≥ 80%: [2] | [4]

COc1c(C(=O)OC2CC=CC2)ccc2c1B(O)OC2 [Compound 104, cyclopent-3-en-1-yl 1-hydroxy-7-methoxy-3H-2,1-benzoxaborole-6-carboxylate]
≥ 80%: all assays above

COc1c(C(=O)OCc2cc(C)cc(C)c2)ccc2c1B(O)OC2 [Compound 116, (3,5-dimethylphenyl)methyl 1-hydroxy-7-methoxy-3H-2,1-benzoxaborole-6-carboxylate]
≥ 80%: [1] | [2] | [4]

COc1c(C(=O)OCC2CC2C)ccc2c1B(O)OC2 (stereo not shown) [Compound 118, (2-methylcyclopropyl)methyl 1-hydroxy-7-methoxy-3H-2,1-benzoxaborole-6-carboxylate]
≥ 80%: all assays above

C#CC(CC)OC(=O)c1ccc2c(c1OC)B(O)OC2 (stereo not shown) [Compound 121, 1-ethylprop-2-ynyl 1-hydroxy-7-methoxy-3H-2,1-benzoxaborole-6-carboxylate]
not listed: [3]
≥ 80%: all other assays above

CCOC(=O)[C@H](C)OC(=O)c1ccc2c(c1OC)B(O)OC2 [Compound 125, [(1S)-2-ethoxy-1-methyl-2-oxo-ethyl] 1-hydroxy-7-methoxy-3H-2,1-benzoxaborole-6-carboxylate]
≥ 80%: [1] | [2] | [4]

COc1ccc(COC(=O)c2ccc3c(c2OC)B(O)OC3)cc1 [Compound 127, (4-methoxyphenyl)methyl 1-hydroxy-7-methoxy-3H-2,1-benzoxaborole-6-carboxylate]
not listed: [3]
≥ 80%: all other assays above

COc1ccccc1COC(=O)c1ccc2c(c1OC)B(O)OC2 [Compound 128, (2-methoxyphenyl)methyl 1-hydroxy-7-methoxy-3H-2,1-benzoxaborole-6-carboxylate]
≥ 80%: [1] | [2] | [4]

COc1c(C(=O)OCCC(C)C)ccc2c1B(O)OC2 [Compound 129, isopentyl 1-hydroxy-7-methoxy-3H-2,1-benzoxaborole-6-carboxylate]
≥ 80%: all assays above
